# Measurements taken from US7279325B2, “Method for identifying antagonist compounds of the estrogen-related receptor 3 (ERR3) by using the x-ray structural coordinates of the ligand binding domain” (priority 2002, dated 2007).
# “Also recorded” adds a separate entry of the source.
# Tests used:
# [1] = tested on: Gal4-ERR3 mutants (A272F, A272L, F435L, L345I-F435L-F450L); assay: Transient transfection luciferase reporter assay, Gal4-ERR3 mutants in COS-1 cells; format: cell-based, human; settings: 10^−6M 4-OHT
# Method: (§1) FIG. 6: represents the transcriptional activities of wild-type and mutant ERR3 fusion proteins in transient transfection assays, wherein (A) COS-1 cells were transfected in 24-well plates with 250 ng per well of Gal4(5×)-TATA-LUC reporter and 50 ng of wt or mutant pCMX-Gal4-ERR3 expression plasmid. […] (B) Experiments were performed as described in (A) using 250 ng per well of Gal4(3×)-TK-LUC reporter plasmid and 50 ng of wt or mutant Gal4-ERR3 expression plasmid. […] FIGS. A to C represent an average of three independent experiments. The activity of the Gal4 DBD control was set to one.
# (§2) COS-1 and BHK cells were cultured in DMEM supplemented with 5% FCS, penicillin, streptomycin, and glutamine. Neuro2A cells were cultured in EMEM supplemented with 10% FCS, penicillin, streptomycin, glutamine, and non-essential amino acids. Transient transfection assays were carried out in 24-well plates (0.5×10^5 cells per well for COS-1 and Neuro2A cells, 0.25×10^5 cells per well for BHK cells) using the standard calcium phosphate coprecipitation technique as described in Greiner et al. (Greiner et al., 1996). Cells were transfected with 250 ng of Gal4(5×)-TATA-LUC, Gal4(3×)-TK-LUC, or ERE(2×)-TK-LUC reporter plasmid and 50 ng per well of pCMX-Gal4-ERR3 or pCMX-ERR3 expression plasmid. The empty plasmids pCMX-Gal4 and pCMX served as control. […]
# [2] = target: T1, ERR3 LBD/GST-SRC-1 RID complex (Homo sapiens, UniProt P62508); assay: In vitro protein-protein interaction assay, wt ERR3 LBD with SRC-1 RID (native gels); format: biochemical; settings: 10^−4M ligand
# T1 construct: wt or mutant ERR3 LBDs (residues 229 to 458, human and murine receptor are identical); made in house; host or cells: E. coli BL21(DE3)
# T1 sequence (P62508 229-458): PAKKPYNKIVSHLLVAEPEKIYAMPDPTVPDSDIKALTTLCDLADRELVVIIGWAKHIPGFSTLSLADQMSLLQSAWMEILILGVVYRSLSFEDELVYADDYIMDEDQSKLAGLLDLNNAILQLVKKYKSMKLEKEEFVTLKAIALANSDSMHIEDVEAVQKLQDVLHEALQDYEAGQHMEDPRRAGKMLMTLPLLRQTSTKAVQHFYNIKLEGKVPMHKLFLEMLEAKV
# Method: The His-tagged wt or mutant ERR3 LBDs, the GST-tagged SRC-1 RID, and GST were expressed in E. coli BL21(DE3) and partially purified by affinity chromatography using TALON (Clontech) or Glutathione Sepharose 4B (Pharmacia), respectively. […] After purification the proteins were dialyzed in assay buffer (20 mM Tris.HCl pH 8.0, 200 mM NaCl), and concentrated. For the protein-protein interaction assays […] (about 70 pmol) of His-tagged wt or mutant ERR3 LBD were mixed with […] (about 100 pmol) of GST-tagged SRC-1 RID or […] of GST and incubated on ice for 10 mins. […] Protein complexes were resolved on native polyacrylamide gradient gels (8%-25%) using the Phast System (Pharmacia).
# In vitro interaction assays with the RID (amino acids 617-764) of the coactivator SRC-1 has first been performed. Hexahistidine (His)-tagged ERR3, LBD and GST-tagged SRC-1 RID were partially purified by affinity chromatography, the proteins were mixed, and complex formation was monitored on native polyacrylamide gels. […] Complexes were separated on native polyacrylamide gradient gels.
# full length ERR3 = full length ERR3 (Homo sapiens, UniProt P62508); assay: Transient transfection assay, full length ERR3 with ERE(2×)-TK-LUC reporter; format: cell-based; settings: in the presence of 4-OHT
# Method: COS-1 and BHK cells were cultured in DMEM supplemented with 5% FCS, penicillin, streptomycin, and glutamine. Neuro2A cells were cultured in EMEM supplemented with 10% FCS, penicillin, streptomycin, glutamine, and non-essential amino acids. Transient transfection assays were carried out in 24-well plates (0.5×10^5 cells per well for COS-1 and Neuro2A cells, 0.25×10^5 cells per well for BHK cells) using the standard calcium phosphate coprecipitation technique as described in Greiner et al. (Greiner et al., 1996). Cells were transfected with 250 ng of Gal4(5×)-TATA-LUC, Gal4(3×)-TK-LUC, or ERE(2×)-TK-LUC reporter plasmid and 50 ng per well of pCMX-Gal4-ERR3 or pCMX-ERR3 expression plasmid. The empty plasmids pCMX-Gal4 and pCMX served as control. […] Luciferase activity was assayed as described in Greiner et al. (1996). All experiments were repeated at least three times. B. Results B.1.
# ERR3 = target: T2, ERR3 (Homo sapiens, UniProt P62508); settings: Coward et al. (2001); cited from earlier work
# T2 sequence (P62508 1-458): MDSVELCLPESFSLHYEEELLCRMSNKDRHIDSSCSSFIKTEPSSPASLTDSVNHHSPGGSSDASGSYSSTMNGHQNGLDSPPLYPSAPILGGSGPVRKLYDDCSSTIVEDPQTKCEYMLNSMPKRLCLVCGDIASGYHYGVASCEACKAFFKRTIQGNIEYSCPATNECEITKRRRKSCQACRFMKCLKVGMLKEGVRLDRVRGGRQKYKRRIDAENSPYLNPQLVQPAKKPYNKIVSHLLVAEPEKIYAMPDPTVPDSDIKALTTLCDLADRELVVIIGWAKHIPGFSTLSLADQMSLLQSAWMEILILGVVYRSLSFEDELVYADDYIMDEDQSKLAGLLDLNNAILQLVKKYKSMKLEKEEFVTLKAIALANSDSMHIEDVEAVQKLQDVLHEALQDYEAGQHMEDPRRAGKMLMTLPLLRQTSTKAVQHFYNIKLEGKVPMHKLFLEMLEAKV
# Gal4-ERR3 = target: T3, Gal4-ERR3 (Homo sapiens, UniProt P62508); assay: Transient transfection luciferase reporter assay, Gal4-ERR3 in COS-1 cells; format: cell-based
# T3 construct: expressed in transfected cells; host or cells: COS-1
# T3 sequence (P62508 229-458): T1 sequence (P62508 229-458)
# Method: as §1, §2
substance,measurement,setting,value
4-hydroxytamoxifen [4-OHT],transcriptional activity of Gal4-ERR3(F435L) and Gal4-ERR3(L345I-F435L-F450L),[1],antagonizes
same,conformational change of the ERR3 LBD (migration on native gels),[2]; native gels,retarded
same,effect on the complex between the wt ERR3 LBD and GST-SRC-1 RID,[2]; native polyacrylamide gradient gels,specifically disrupted
same,active repression of transcription of the TK promoter by full length ERR3,full length ERR3,does not actively repress transcription
same,transactivation / transcriptional activity mediated by ERR3,ERR3,repressed; also recorded: selectively block
same,activity of Gal4-ERR3,"Gal4-ERR3; 10^−6M 4-OHT, Gal4(5×)-TATA-LUC reporter",blocked efficiently
same,repression of the constitutive activity of Gal4-ERR3 below basal levels of the TK promoter,Gal4-ERR3; Gal4(3×)-TK-LUC reporter,neither 4-OHT nor DES repress
